Assay results published in patent US3951954A, “Novel oxofuryl ester derivatives of penicillin and cephalosporin” (priority 1971, dated 1976).
Counter-ions that a name gives are not always drawn. Blank lines part the entries; values can stand above or below the compound they belong to.

Columns and labels:
[1] = Concentration of ampicillin in blood plasma of rats after oral administration (Experiment a); settings: rat, in vivo, 20 mg/kg
From the text: Now, for showing the excellent properties of the compounds of this invention, the experiments of testing the concentration of the compound in blood when it was orally administered and the results thereof are shown in the following examples together with the results of the tests made about ampicillin and pivampicillin.
Each of ampicillin tri-hydrate, pivampicillin hydrochloride-mono-hydrate, and the hydrochloride of the aimed compound of this invention was orally administered to rats (male, each group five rats) in an amount of 20 mg/kg as ampicillin and after 0.5 hour, the blood was drawn and the concentration of ampicillin in the blood plasma was measured.

[2] = background statement; cited from earlier work
liver = settings: Biochem. Pharmacol. 16, 1533-1537 (1967) and others; cited from earlier work
[3] = Chemical Abstracts 45, 4824h (1951); 55, 8653d (1961); cited from earlier work

Compound: CC1(C)S[C@@H]2[C@H](NC(=O)[C@H](N)c3ccccc3)C(=O)N2[C@H]1C(=O)O [Ampicillin tri-hydrate, reference compound]
- concentration at 0.5 h [1]: 1000 ng/mL

- Concentration of ampicillin in blood plasma ([1]; 30 min): 5.58 µg/mL
Compound: CC1(C)S[C@@H]2[C@H](NC(=O)[C@H](N)c3ccccc3)C(=O)N2[C@H]1C(=O)OC1OC(=O)c2ccccc21 (some centres unmarked) [Example 2, ampicillin 1-oxo-1,3-dihydroisobenzofuran-3-yl ester hydrochloride]

Compound: CC1(C)S[C@@H]2C(NC(=O)C(N)c3ccccc3)C(=O)N2[C@H]1C(=O)O (stereo partly drawn) [ampicillin, 6-(α-aminophenylacetamido)penicillanic acid]
- extent of absorption by oral administration [2]: not necessarily sufficient

Compound: C=O [formaldehyde]
- influence on liver (liver): bad influences on a liver
- toxic property compared with other aldehydes of larger molecular weight [3]: about 50 times
